The record followed here is patent US20240116879A1, “AMILORIDE DERIVATIVES AND METHODS OF USING SAME FOR THE TREATMENT OF VIRAL INFECTIONS” (priority 2020, published 2024).

The test system of data set [1] is SARS-CoV-2 stem loop constructs (SL1, SL4, SL5a, SL5b, SL6). The format is binding. The following applies: RiboGreen displacement, Tris buffer pH 7.4.
A further data set concerns human coronavirus OC43. The format is cell-based. The note with it: for effect on virus titer (in words): 50 μM or 100 μM, Vero E6, MOI=1, 24 hours at 33° C.; for reduced virus titer: 100 μM, Vero E6, MOI=1, 24 hr, plaque formation.
The subject of data set [2] is SARS-CoV-2 5′-end and 3′UTR. The format is cell-based.
Data set [3] in a line: Cytotoxicity MTT assay in Vero E6 cells. It counts as cell-based, African green monkey. The following applies: African green monkey, Vero E6 cells; Vero E6, 96 hrs, 33° C., MTT. On the procedure:
(§1) Cytotoxicity Assays: Various concentrations of DMAs were added to Vero E6 cells in culture. The cells were incubated at 33° C. for 96 hrs. Cell viability was determined by MTT assay and measured at 570 nm according to the manufacturer's instructions (EMD Millipore). All experiments were performed in triplicate. The concentration of DMAs required to reduce cell viability to 50% of the control cells was expressed as CC50.

A further data set deals with Vero E6 cells. In words: Cytotoxicity MTT assay in Vero E6 cells. The format is cell-based, African green monkey. The following applies: <10 μM, 96 hour, Vero E6. As for the experimental part:
as §1

For another data set, the system named is VeroE6 cells. The note with it: uninfected VeroE6, 3 days of treatment, 10 μM and 50 μM.
For data set [4], the system named is SARS-CoV-2. The format is cell-based. The note with it: for viral titer compared to DMSO (TCID50 assay): 10 μM and 50 μM, MOI 0.1, 3 days; for antiviral activity compared to parent scaffold DMA-01: Vero E6 infected with wild-type SARS-CoV-2.
A further data set has as its system SARS-CoV-2 SL1 RNA. In words: Indicator displacement assay (IDA), SL1. It counts as binding. The following applies: RiboGreen displacement, Tris buffer pH 7.4.
A further data set has as its system SARS-CoV-2 SL4 RNA. In words: Indicator displacement assay (IDA), SL4. The format is binding. The following applies: RiboGreen displacement, Tris buffer pH 7.4.
The next data set deals with SARS-CoV-2 SL6 RNA. In words: Indicator displacement assay (IDA), SL6. The format is binding. The following applies: RiboGreen displacement, Tris buffer pH 7.4.
Data set [5] concerns SARS-CoV-2. In words: microbe, parasite or virus in culture. The following applies: Severe acute respiratory syndrome coronavirus 2, Vero C1008; Vero E6, MOI 0.1, within 24 hours of infection; read-out: approximate IC50, cell-free viral RNA levels. The format is cell-based.

As for `CN(C)c1nc(N)c(C(=O)N=C(N)N)nc1Cl` [DMA-1, dimethylamiloride, reference compound], in [1], the “binding affinity against any of the constructs (IDA)” value was “did not show binding affinity”. For the same compound, in the data set on human coronavirus OC43, the “effect on virus titer (in words)” value was “no activity”.

The term CC50 denotes the concentration giving 50% cytotoxicity. For `CN(C)c1nc(N)c(C(=O)NC(=N)N)nc1-c1ccccc1` [DMA-132], in data set [1], the “binding affinity against any of the constructs (IDA)” value is reported as “did not show binding affinity”. Moreover, the “reduction of FLuc activity” value in data set [2] is recorded as “approximately 50%”. In the data set with human coronavirus OC43, the “effect on virus titer (in words)” value is “reduce virus titer in a dose-dependent manner” and the reduced virus titer was ~1,000 fold. In data set [3], the CC50 at 96 h was greater than 100 µM. In the data set on Vero E6 cells, the cell viability entry was “do not significantly reduce cell viability”. In addition, the “cellular viability as measured by ATP content” value with VeroE6 cells is on record as “without measurable effect on cellular viability”. Also, in the data set with SARS-CoV-2 [4], the “viral titer compared to DMSO (TCID50 assay)” value is listed as “dose-dependent reduction in viral titer” and the “antiviral activity compared to parent scaffold DMA-01” value is listed as “improved antiviral activity”.

Usually IC50 stands for the concentration at which inhibition is half-maximal. Take `CN(C)c1nc(N)c(C(=O)NC(=N)N)nc1C#Cc1ccccc1` [DMA-135]: in the data set with SARS-CoV-2 SL1 RNA, the “affinity for SL1 (IDA)” value was “weak affinity”. Moreover, the “reduction of FLuc activity” value in [2] was “approximately 50%”. For the same compound, in the data set on human coronavirus OC43, the “effect on virus titer (in words)” value is “reduce virus titer in a dose-dependent manner” and the reduced virus titer was ~1,000 fold. Further, the “affinity for SL4 (IDA)” value in the data set on SARS-CoV-2 SL4 RNA was “weak affinity”. For the same compound, in data set [3], the half-maximal cytotoxic concentration (CC50) at 96 h was greater than 100 µM. Further, the cell viability result in the data set with Vero E6 cells is “do not significantly reduce cell viability”. The “affinity for SL6 (IDA)” value with SARS-CoV-2 SL6 RNA was “weak affinity”. Further, the “cellular viability as measured by ATP content” value in the data set on VeroE6 cells is listed as “without measurable effect on cellular viability”. For the same compound, in the data set on SARS-CoV-2 [4], the “viral titer compared to DMSO (TCID50 assay)” value is on record as “dose-dependent reduction in viral titer” and the “antiviral activity compared to parent scaffold DMA-01” value is reported as “improved antiviral activity”. Moreover, in the data set with SARS-CoV-2 [5], the 50% inhibitory concentration (IC50) was roughly 10 µM.

Regarding `CN(C)c1nc(N)c(C(=O)NC(=N)N)nc1-c1ccc(-c2ccccc2)cc1` [DMA-155], the “reduction of FLuc activity” value in data set [2] was roughly 90%. In the data set on human coronavirus OC43, the “effect on virus titer (in words)” value is recorded as “reduce virus titer in a dose-dependent manner” and the reduced virus titer was ~1,000 fold. The same compound yielded a CC50 at 96 h in [3] of roughly 90 µM. Moreover, in the data set on Vero E6 cells, the cell viability result is given as “do not significantly reduce cell viability”. Also, the “affinity for SL6 (IDA)” value in the data set on SARS-CoV-2 SL6 RNA is listed as “strong binder with highest affinity for SL6”. Further, in the data set on SARS-CoV-2 [4], the “antiviral activity compared to parent scaffold DMA-01” value is “improved antiviral activity”. For the same compound, the IC50 in the data set with SARS-CoV-2 [5] is roughly 16 µM.
